Where a SMILES comes first, the peptide text is derived from it. [ ]: non-standard residue; d: D form. dPhe(4-Cl) = N[C@H](Cc1ccc(Cl)cc1)C(=O)O; Deg = CCC(N)(CC)C(=O)O
Experiments:
Assay type in all cases: cell-based, human
Conditions in all cases: 72 hours
PA-1 (ovary) = experiment: MTT cytotoxicity assay, PA-1 cells
Experimental: (§1) The cytotoxic activity of synthesized peptides was tested on […] human tumor cell lines namely PA-1 (ovary), SW620 (colon) HuTu80 (duodenum), L132 (lung), U87MG (glioblastoma), KB (oral), MIAPaCa2(pancreas), A549(non small cell lung) and HT-29(colon). The tumor cells were collected at exponential growth phase and resuspended in medium (1.5×10^6 cells/ml in RPMI 1640 containing 10% FBS). 150 μl of medium was added to the wells of a 96-well tissue culture plate (Nunc, Denmark) followed by 30 μl of cell suspension. The plate was left in incubator (37° C., 5% CO2) overnight. 20 μl of the peptide (100 pM to 1 uM concentration) was added to marked wells of the 96-well plate. Each concentration was plated in triplicates. 20 μl of medium alone was added to control wells while wells without cells served as blanks. A total volume of 200 μl was ensured in each well and plate was left in incubator (37° C., 5% CO2). After 72 hours of incubation an MTT assay was performed and percentage cytotoxicity was calculated with respect to control cells. Following Tables show the maximum cytotoxicity achieved on various cell lines.

SW620 (colon) = experiment: MTT cytotoxicity assay, SW620 cells
Experimental: as §1

HuTu80 (duodenum) = experiment: MTT cytotoxicity assay, HuTu80 cells
Experimental: as §1

L132 (lung) = experiment: MTT cytotoxicity assay, L132 cells
Experimental: as §1

U87MG (glioblastoma) = experiment: MTT cytotoxicity assay, U87MG cells
Experimental: as §1

KB (oral) = experiment: MTT cytotoxicity assay, KB cells
Experimental: as §1

Structure (SMILES): CC[C@H](C)[C@H](NC(=O)[C@H](CO)NC(=O)[C@H](CC(N)=O)NC(=O)[C@H](CC(C)C)NC(=O)[C@H](Cc1ccc(O)cc1)NC(=O)[C@H](CCCCN)NC(=O)[C@H](CCCCN)NC(=O)[C@@H](NC(=O)[C@H](C)NC(=O)[C@H](CC(C)C)NC(=O)[C@H](CCC(N)=O)NC(=O)[C@H](CCCCN)NC(=O)[C@H](CCCNC(=N)N)NC(=O)[C@H](CC(C)C)NC(=O)[C@H](CCCNC(=N)N)NC(=O)[C@@H](NC(=O)[C@H](Cc1ccc(O)cc1)NC(=O)[C@H](CC(N)=O)NC(=O)[C@H](CC(=O)O)NC(=O)[C@@H](NC(=O)[C@@H](Cc1ccc(Cl)cc1)NC(=O)[C@@H](NC(=O)C(CC)(CC)NC(=O)[C@H](CC(=O)O)NC(=O)[C@H](CO)NC(=O)[C@@H](N)Cc1c[nH]cn1)C(C)C)[C@@H](C)O)[C@@H](C)O)C(C)C)C(=O)N[C@@H](CC(C)C)C(=O)N[C@@H](CC(N)=O)C(N)=O [SEQ ID NO: 3] (H-HSD[Deg]V[dPhe(4-Cl)]TDNYTRLRKQLAVKKYLNSILN-NH2)
- Percentage cytotoxicity (PA-1 (ovary); PA1, 100 pM): 15 ± 4.5%
- Percentage cytotoxicity (PA-1 (ovary); PA1, 1 nM): 29 ± 5.8%
- Percentage cytotoxicity (PA-1 (ovary); PA1, 10 nM): 22 ± 4.5%
- Percentage cytotoxicity (PA-1 (ovary); PA1, 100 nM): 23.5 ± 5.2%
- Percentage cytotoxicity (PA-1 (ovary); PA1, 1 μM): 22.1 ± 4.5%
- Percentage cytotoxicity (SW620 (colon); SW620, 100 pM): 15.9 ± 6.6%
- Percentage cytotoxicity (SW620 (colon); SW620, 1 nM): 29 ± 5.6%
- Percentage cytotoxicity (SW620 (colon); SW620, 10 nM): 27 ± 5.5%
- Percentage cytotoxicity (SW620 (colon); SW620, 100 nM): 22 ± 7.3%
- Percentage cytotoxicity (SW620 (colon); SW620, 1 μM): 16 ± 3.4%
- Percentage cytotoxicity (HuTu80 (duodenum); HuTu80, 100 pM): 14 ± 7.8%
- Percentage cytotoxicity (HuTu80 (duodenum); HuTu80, 1 nM): 29 ± 6.2%
- Percentage cytotoxicity (HuTu80 (duodenum); HuTu80, 10 nM): 28 ± 4.7%
- Percentage cytotoxicity (HuTu80 (duodenum); HuTu80, 100 nM): 24 ± 7.8%
- Percentage cytotoxicity (HuTu80 (duodenum); HuTu80, 1 μM): 14.5 ± 7.1%
- Percentage cytotoxicity (L132 (lung); L132, 100 pM): 14 ± 5.6%
- Percentage cytotoxicity (L132 (lung); L132, 1 nM): 23 ± 3.5%
- Percentage cytotoxicity (L132 (lung); L132, 10 nM): 29 ± 6.7%
- Percentage cytotoxicity (L132 (lung); L132, 100 nM): 26 ± 6.5%
- Percentage cytotoxicity (L132 (lung); L132, 1 μM): 14 ± 6.5%
- Percentage cytotoxicity (U87MG (glioblastoma); 100 pM): 11 ± 7.8%
- Percentage cytotoxicity (U87MG (glioblastoma); 1 nM): 16 ± 6.6%
- Percentage cytotoxicity (U87MG (glioblastoma); 10 nM): 28 ± 7.5%
- Percentage cytotoxicity (U87MG (glioblastoma); 100 nM): 26 ± 6.7%
- Percentage cytotoxicity (U87MG (glioblastoma); 1 μM): 25 ± 4.6%
- Percentage cytotoxicity (KB (oral); 100 pM): 13 ± 8.5%
- Percentage cytotoxicity (KB (oral); 1 nM): 24.5 ± 9.5%
- Percentage cytotoxicity (KB (oral); 10 nM): 22 ± 8.2%
- Percentage cytotoxicity (KB (oral); 100 nM): 18 ± 8.5%
- Percentage cytotoxicity (KB (oral); 1 μM): 14 ± 3.4%

Source: patent US6489297B1, “Vasoactive intestinal peptide analogs” (Dabur Research Foundation, priority 2000, dated 2002)
